In US11459315B2, “Modulators of methyl modifying enzymes, compositions and uses thereof” (Constellation Pharmaceuticals, Inc., priority 2017, dated 2022):
Like-named read-outs stand apart in the source and are kept apart here.

Key:
[1] = system: H3K27me3 mark in HeLa cells (EZH2); test: H3K27me3 Alpha Hela Assay (AlphaLISA); type: cell-based; conditions: HeLa cells, 72 hrs, read-out: EZH2 Cell H3K27me3 Alpha HeLa (EC50 K27me3)
How it was run: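 HeLa cells (1,000/well) treated with ten 3-fold compound doses for 72 h at 37 °C; lysates extracted and H3K27me3 detected by AlphaLISA with anti-K27me3 acceptor beads, biotinylated anti-H3 (3 nM) and streptavidin donor beads. EC50 from DMSO-normalized dose-response curves; duplicate plate assessed viability.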

[2] = biological target: PRC2 containing wt EZH2 (Homo sapiens (Human), UniProt Q15910); test: EZH2 biochemical assay (IC50), 3H-SAM incorporation into biotinylated H3 peptide
How it was run: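 The PRC2 pentamer with wt EZH2 (30 pM) was pre-incubated for 3-5 h with 450 nM SAM plus 450 nM ³H-SAM, 2 µM H3K27me3 activating peptide and compound (0.8% DMSO) in Tris at pH 8.5. Biotinylated H3K27me1 peptide was added and the reaction ran 18-22 h at RT. Incorporated ³H was captured on streptavidin plates, and IC50 was taken from a four-parameter fit.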

[3] = EZH2 (IC50), 30 pM PRC2 containing wt EZH2; 3-5 h pre-incubation
[4] = read-out: EZH2 (IC50); 30 pM PRC2 containing wt EZH2; 3-5 h pre-incubation
[5] = 30 pM PRC2 containing wt EZH2; 3-5 h pre-incubation; read-out: EZH2 (IC50)

PRC2 containing wt EZH2, sequence (Q15910 whole entry): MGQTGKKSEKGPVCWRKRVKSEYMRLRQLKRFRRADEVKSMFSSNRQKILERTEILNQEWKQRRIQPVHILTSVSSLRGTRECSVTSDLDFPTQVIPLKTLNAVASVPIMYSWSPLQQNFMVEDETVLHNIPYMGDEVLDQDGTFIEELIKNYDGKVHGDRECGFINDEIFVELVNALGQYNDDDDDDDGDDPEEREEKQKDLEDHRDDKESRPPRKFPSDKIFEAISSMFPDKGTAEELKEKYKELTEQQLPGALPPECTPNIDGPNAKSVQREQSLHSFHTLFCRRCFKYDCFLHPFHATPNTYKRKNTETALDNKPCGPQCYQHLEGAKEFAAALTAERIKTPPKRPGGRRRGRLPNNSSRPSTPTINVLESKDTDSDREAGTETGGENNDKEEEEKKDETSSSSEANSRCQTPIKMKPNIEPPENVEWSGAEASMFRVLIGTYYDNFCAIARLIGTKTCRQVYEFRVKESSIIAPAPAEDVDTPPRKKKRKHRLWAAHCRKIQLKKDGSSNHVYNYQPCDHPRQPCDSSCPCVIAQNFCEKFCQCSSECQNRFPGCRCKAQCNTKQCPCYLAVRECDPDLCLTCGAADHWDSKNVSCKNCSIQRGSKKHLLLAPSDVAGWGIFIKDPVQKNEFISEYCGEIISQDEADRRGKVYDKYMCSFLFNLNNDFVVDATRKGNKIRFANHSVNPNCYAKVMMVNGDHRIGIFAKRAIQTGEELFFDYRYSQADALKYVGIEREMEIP
PRC2 containing wt EZH2, sequence (O75530 whole entry partner): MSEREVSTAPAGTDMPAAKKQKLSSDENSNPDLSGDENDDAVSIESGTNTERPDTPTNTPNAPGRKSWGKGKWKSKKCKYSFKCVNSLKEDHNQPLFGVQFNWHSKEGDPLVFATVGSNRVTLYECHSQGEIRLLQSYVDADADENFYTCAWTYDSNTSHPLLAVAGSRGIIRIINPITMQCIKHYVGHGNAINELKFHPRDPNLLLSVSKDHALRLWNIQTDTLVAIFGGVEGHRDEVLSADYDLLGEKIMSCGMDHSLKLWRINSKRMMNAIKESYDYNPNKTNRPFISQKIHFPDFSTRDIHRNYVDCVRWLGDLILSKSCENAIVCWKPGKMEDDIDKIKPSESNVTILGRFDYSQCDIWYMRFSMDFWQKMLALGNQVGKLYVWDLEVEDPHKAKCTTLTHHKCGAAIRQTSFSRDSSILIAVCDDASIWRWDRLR
PRC2 containing wt EZH2, sequence (Q15022 whole entry partner): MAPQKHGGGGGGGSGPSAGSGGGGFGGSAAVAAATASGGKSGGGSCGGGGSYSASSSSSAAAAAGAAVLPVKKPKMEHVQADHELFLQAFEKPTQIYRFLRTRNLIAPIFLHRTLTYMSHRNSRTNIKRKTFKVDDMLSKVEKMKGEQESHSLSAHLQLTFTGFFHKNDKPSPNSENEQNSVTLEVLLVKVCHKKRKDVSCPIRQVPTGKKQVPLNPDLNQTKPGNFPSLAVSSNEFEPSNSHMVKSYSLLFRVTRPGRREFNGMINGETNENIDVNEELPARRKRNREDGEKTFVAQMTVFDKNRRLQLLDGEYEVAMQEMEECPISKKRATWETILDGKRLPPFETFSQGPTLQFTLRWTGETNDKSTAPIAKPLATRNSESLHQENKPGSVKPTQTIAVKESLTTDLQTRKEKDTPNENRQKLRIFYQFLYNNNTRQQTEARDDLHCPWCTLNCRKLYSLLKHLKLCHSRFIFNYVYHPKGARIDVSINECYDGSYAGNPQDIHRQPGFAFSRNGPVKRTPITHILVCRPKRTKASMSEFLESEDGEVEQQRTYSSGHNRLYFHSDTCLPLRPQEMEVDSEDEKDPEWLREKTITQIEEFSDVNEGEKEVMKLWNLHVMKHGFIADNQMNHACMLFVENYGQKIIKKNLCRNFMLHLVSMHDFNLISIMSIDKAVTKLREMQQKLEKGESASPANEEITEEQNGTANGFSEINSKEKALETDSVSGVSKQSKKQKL
PRC2 containing wt EZH2, sequence (Q09028 whole entry partner): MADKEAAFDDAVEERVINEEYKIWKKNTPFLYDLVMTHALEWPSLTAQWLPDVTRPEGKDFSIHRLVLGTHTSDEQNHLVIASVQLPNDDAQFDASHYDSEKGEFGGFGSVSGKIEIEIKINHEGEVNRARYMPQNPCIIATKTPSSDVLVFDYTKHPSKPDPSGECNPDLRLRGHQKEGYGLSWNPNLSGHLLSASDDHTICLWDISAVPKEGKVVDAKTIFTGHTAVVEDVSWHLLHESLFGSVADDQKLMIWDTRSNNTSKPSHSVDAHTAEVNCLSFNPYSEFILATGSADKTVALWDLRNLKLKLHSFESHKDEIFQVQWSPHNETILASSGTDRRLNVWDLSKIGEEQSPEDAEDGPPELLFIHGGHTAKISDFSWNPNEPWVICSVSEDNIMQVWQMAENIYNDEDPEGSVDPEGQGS
PRC2 containing wt EZH2, sequence (Q6ZN18 whole entry partner): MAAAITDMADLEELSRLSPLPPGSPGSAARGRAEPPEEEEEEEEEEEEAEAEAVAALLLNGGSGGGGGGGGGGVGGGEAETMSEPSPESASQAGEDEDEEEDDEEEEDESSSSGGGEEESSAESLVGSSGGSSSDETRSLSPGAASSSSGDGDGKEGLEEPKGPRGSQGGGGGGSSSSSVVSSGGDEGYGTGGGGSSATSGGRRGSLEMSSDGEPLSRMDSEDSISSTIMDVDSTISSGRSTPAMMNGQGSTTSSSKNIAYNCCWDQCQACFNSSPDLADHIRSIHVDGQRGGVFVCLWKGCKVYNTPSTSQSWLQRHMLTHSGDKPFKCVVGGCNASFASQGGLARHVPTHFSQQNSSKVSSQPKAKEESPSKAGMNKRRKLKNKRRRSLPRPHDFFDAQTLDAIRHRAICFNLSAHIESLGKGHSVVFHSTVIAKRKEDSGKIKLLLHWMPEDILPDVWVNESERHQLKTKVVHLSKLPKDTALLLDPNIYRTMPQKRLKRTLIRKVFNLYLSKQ

SMILES | EC50 [1] [nM] | IC50 [2, 3] [nM] | EC50 ([1]; Homo sapiens, HeLa, 72 h) [nM] | IC50 [2, 4] [nM] | IC50 [2, 5] [nM]
CSc1cc(C)[nH]c(=O)c1CNC(=O)c1c(C)n([C@H](C)C2OCC(N3CC(C)(C)C3)CO2)c2ccccc12 (single isomer, unassigned) [78 (isomer 1)] | 10 to 100 | < 0.5 |  |  | 
CSc1cc(C)[nH]c(=O)c1CNC(=O)c1c(C)n([C@H](C)C2OCC(N3CC(C)(C)C3)CO2)c2ccccc12 (single isomer, unassigned) [78 (isomer 2)] | > 100 | > 5 |  |  | 
CSc1cc(C)[nH]c(=O)c1CNC(=O)c1c(C)n([C@H](C)C2CCC(N3CC[C@@H](F)C3)CC2)c2ccccc12 (single isomer, unassigned) [79 (isomer 1)] |  | < 0.5 | < 10 |  | 
CSc1cc(C)[nH]c(=O)c1CNC(=O)c1c(C)n([C@H](C)C2CCC(N3CC[C@@H](F)C3)CC2)c2ccccc12 (single isomer, unassigned) [79 (isomer 2)] | 10 to 100 |  |  | < 0.5 | 
CSc1cc(C)[nH]c(=O)c1CNC(=O)c1c(C)n([C@H](C)C2CCC(N3CC(F)C3)CC2)c2ncc(F)cc12 (single isomer, unassigned) [84 (isomer 1)] |  | < 0.5 | < 10 |  | 
CSc1cc(C)[nH]c(=O)c1CNC(=O)c1c(C)n([C@H](C)C2CCC(N3CC(F)C3)CC2)c2ncc(F)cc12 (single isomer, unassigned) [84 (isomer 2)] | 10 to 100 |  |  | < 0.5 | 
CSc1cc(C)[nH]c(=O)c1CNC(=O)c1c(C)n([C@H](C)C2OCC(N3CC(F)(F)C3)CO2)c2ccccc12 (single isomer, unassigned) [85 (isomer 1)] | 10 to 100 | < 0.5 |  |  | 
CSc1cc(C)[nH]c(=O)c1CNC(=O)c1c(C)n([C@H](C)C2OCC(N3CC(F)(F)C3)CO2)c2ccccc12 (single isomer, unassigned) [85 (isomer 2)] | > 100 | 0.5 to 5 |  |  | 
COC1(C)CN(C2CCC([C@@H](C)n3c(C)c(C(=O)NCc4c(SC)cc(C)[nH]c4=O)c4ccccc43)CC2)C1 (single isomer, unassigned) [90 (isomer 1)] | 10 to 100 |  |  |  | < 0.5
COC1(C)CN(C2CCC([C@@H](C)n3c(C)c(C(=O)NCc4c(SC)cc(C)[nH]c4=O)c4ccccc43)CC2)C1 (single isomer, unassigned) [90 (isomer 2)] | > 100 |  |  |  | < 0.5
CCOC1CN(C2CCC([C@@H](C)n3c(C)c(C(=O)NCc4c(SC)cc(C)[nH]c4=O)c4cccnc43)CC2)C1 (single isomer, unassigned) [91 (isomer 1)] |  |  | < 10 |  | < 0.5
CCOC1CN(C2CCC([C@@H](C)n3c(C)c(C(=O)NCc4c(SC)cc(C)[nH]c4=O)c4cccnc43)CC2)C1 (single isomer, unassigned) [91 (isomer 2)] | 10 to 100 |  |  |  | < 0.5
COC1CN(C2CCC([C@@H](C)n3c(C)c(C(=O)NCc4c(SC)cc(C)[nH]c4=O)c4cc(F)cnc43)CC2)C1 (single isomer, unassigned) [94 (isomer 1)] | < 10 |  |  |  | < 0.5
COC1CN(C2CCC([C@@H](C)n3c(C)c(C(=O)NCc4c(SC)cc(C)[nH]c4=O)c4cc(F)cnc43)CC2)C1 (single isomer, unassigned) [94 (isomer 2)] | > 100 |  |  |  | 0.5 to 5
CSc1cc(C)[nH]c(=O)c1CNC(=O)c1c(C)n([C@H](C)C2CCC(N3CC(OC4CC4)C3)CC2)c2ncncc12 (single isomer, unassigned) [102 (isomer 1)] |  |  | < 10 |  | < 0.5
CSc1cc(C)[nH]c(=O)c1CNC(=O)c1c(C)n([C@H](C)C2CCC(N3CC(OC4CC4)C3)CC2)c2ncncc12 (single isomer, unassigned) [102 (isomer 2)] | 10 to 100 |  |  |  | < 0.5
CO[C@@H]1CN(C2CCC([C@@H](C)n3c(C)c(C(=O)NCc4c(SC)cc(C)[nH]c4=O)c4cccnc43)CC2)C[C@H]1F (single isomer, unassigned) [104 (isomer 1)] | 10 to 100 |  |  |  | 0.5 to 5
CO[C@@H]1CN(C2CCC([C@@H](C)n3c(C)c(C(=O)NCc4c(SC)cc(C)[nH]c4=O)c4cccnc43)CC2)C[C@H]1F (single isomer, unassigned) [104 (isomer 2)] | > 100 |  |  |  | 0.5 to 5

SMILES | EC50 [1] [nM] | IC50 [2, 3] [nM] | EC50 ([1]; Homo sapiens, HeLa, 72 h) [nM] | IC50 [2, 4] [nM] | IC50 [2, 5] [nM]
COC1CN(C2CCC([C@@H](C)n3c(C)c(C(=O)NCc4c(SC)cc(C)[nH]c4=O)c4cc(Cl)cnc43)CC2)C1 (single isomer, unassigned) [106 (isomer 1)] |  |  | < 10 |  | < 0.5
COC1CN(C2CCC([C@@H](C)n3c(C)c(C(=O)NCc4c(SC)cc(C)[nH]c4=O)c4cc(Cl)cnc43)CC2)C1 (single isomer, unassigned) [106 (isomer 2)] | 10 to 100 |  |  |  | < 0.5
CSc1cc(C)[nH]c(=O)c1CNC(=O)c1c(C)n([C@H](C)C2CCC(N3CC(OC(C)(C)C)C3)CC2)c2ncccc12 (single isomer, unassigned) [112 (isomer 1)] |  |  | < 10 |  | < 0.5
CSc1cc(C)[nH]c(=O)c1CNC(=O)c1c(C)n([C@H](C)C2CCC(N3CC(OC(C)(C)C)C3)CC2)c2ncccc12 (single isomer, unassigned) [112 (isomer 2)] | 10 to 100 |  |  |  | < 0.5
CSc1cc(C)[nH]c(=O)c1CNC(=O)c1c(C)n([C@H](C)C2CCC(N3CC(OC4CC4)C3)CC2)c2c(F)cccc12 (single isomer, unassigned) [113 (isomer 1)] |  |  | < 10 |  | < 0.5
CSc1cc(C)[nH]c(=O)c1CNC(=O)c1c(C)n([C@H](C)C2CCC(N3CC(OC4CC4)C3)CC2)c2c(F)cccc12 (single isomer, unassigned) [113 (isomer 2)] | 10 to 100 |  |  |  | < 0.5
CSc1cc(C)[nH]c(=O)c1CNC(=O)c1c(C)n([C@H](C)C2CCC(N3CC(OC(F)F)C3)CC2)c2c(F)cccc12 (single isomer, unassigned) [121 (isomer 1)] | < 10 |  |  |  | < 0.5
CSc1cc(C)[nH]c(=O)c1CNC(=O)c1c(C)n([C@H](C)C2CCC(N3CC(OC(F)F)C3)CC2)c2c(F)cccc12 (single isomer, unassigned) [121 (isomer 2)] | > 100 |  |  |  | 0.5 to 5
CSc1cc(C)[nH]c(=O)c1CNC(=O)c1c(C)n([C@H](C)C2CCC(N3CC(OC(F)(F)F)C3)CC2)c2ncncc12 (single isomer, unassigned) [123 (isomer 1)] |  |  | < 10 |  | < 0.5
CSc1cc(C)[nH]c(=O)c1CNC(=O)c1c(C)n([C@H](C)C2CCC(N3CC(OC(F)(F)F)C3)CC2)c2ncncc12 (single isomer, unassigned) [123 (isomer 2)] | < 10 |  |  |  | < 0.5
COc1cnc2c(c1)c(C(=O)NCc1c(SC)cc(C)[nH]c1=O)c(C)n2[C@H](C)C1CCC(N2CC(OC(F)F)C2)CC1 (single isomer, unassigned) [125 (isomer 1)] |  |  | < 10 |  | < 0.5
CSc1cc(C)[nH]c(=O)c1CNC(=O)c1c(C)n([C@H](C)C2CCC(OC(C)=O)CC2)c2ccccc12 (single isomer, unassigned) [134 (isomer 1)] |  |  | < 10 |  | < 0.5
CSc1cc(C)[nH]c(=O)c1CNC(=O)c1c(C)n([C@H](C)C2CCC(OC(C)=O)CC2)c2ccccc12 (single isomer, unassigned) [134 (isomer 2)] | < 10 |  |  |  | < 0.5
CSc1cc(C)[nH]c(=O)c1CNC(=O)c1c(C)n([C@H](C)C2CCC(OC3COC3)CC2)c2ccccc12 (single isomer, unassigned) [137 (isomer 1)] |  | < 0.5 | < 10 |  | 
CSc1cc(C)[nH]c(=O)c1CNC(=O)c1c(C)n([C@H](C)C2CCC(OC3COC3)CC2)c2ccccc12 (single isomer, unassigned) [137 (isomer 2)] | < 10 |  |  | < 0.5 | 
CSc1cc(C)[nH]c(=O)c1CNC(=O)c1c(C)n([C@H](C)C2CCC(N3CC(C#N)C3)CC2)c2ccccc12 (single isomer, unassigned) [138 (isomer 1)] |  | 0.5 to 5 | 10 to 100 |  | 
CSc1cc(C)[nH]c(=O)c1CNC(=O)c1c(C)n([C@H](C)C2CCC(N3CC(C#N)C3)CC2)c2ccccc12 (single isomer, unassigned) [138 (isomer 2)] | 10 to 100 | < 0.5 |  |  | 
CSc1cc(C)[nH]c(=O)c1CNC(=O)c1c(C)n([C@H](C)C2CCC(N3CC34COC4)CC2)c2ncccc12 (single isomer, unassigned) [139 (isomer 1)] |  | < 0.5 | 10 to 100 |  | 
